Where “and” joins values, the source holds several entries; their conditions need not be identical. Equal entries are not always repeated. Where two headings read alike, the source gives them in different places.
How the values were obtained:
[1] = system: Shionogi mouse mammary carcinoma cells; experiment: Androgenic/antiandrogenic activity on DHT-stimulated Shionogi cell growth; assay type: cell-based
Human Androgen Receptor = molecular target: T1, Human Androgen Receptor (Homo sapiens, UniProt P10275); experiment: Androgen receptor binding assay (hydroxylapatite, [3H]R1881, cytosol of transfected HEK-293 cells); conditions: for Androgen Receptor Binding (%) Human RBA R1881 = 100: % RBA=100×IC50 R1881/IC50 compound, transfected cells
T1 sequence (P10275 1-920): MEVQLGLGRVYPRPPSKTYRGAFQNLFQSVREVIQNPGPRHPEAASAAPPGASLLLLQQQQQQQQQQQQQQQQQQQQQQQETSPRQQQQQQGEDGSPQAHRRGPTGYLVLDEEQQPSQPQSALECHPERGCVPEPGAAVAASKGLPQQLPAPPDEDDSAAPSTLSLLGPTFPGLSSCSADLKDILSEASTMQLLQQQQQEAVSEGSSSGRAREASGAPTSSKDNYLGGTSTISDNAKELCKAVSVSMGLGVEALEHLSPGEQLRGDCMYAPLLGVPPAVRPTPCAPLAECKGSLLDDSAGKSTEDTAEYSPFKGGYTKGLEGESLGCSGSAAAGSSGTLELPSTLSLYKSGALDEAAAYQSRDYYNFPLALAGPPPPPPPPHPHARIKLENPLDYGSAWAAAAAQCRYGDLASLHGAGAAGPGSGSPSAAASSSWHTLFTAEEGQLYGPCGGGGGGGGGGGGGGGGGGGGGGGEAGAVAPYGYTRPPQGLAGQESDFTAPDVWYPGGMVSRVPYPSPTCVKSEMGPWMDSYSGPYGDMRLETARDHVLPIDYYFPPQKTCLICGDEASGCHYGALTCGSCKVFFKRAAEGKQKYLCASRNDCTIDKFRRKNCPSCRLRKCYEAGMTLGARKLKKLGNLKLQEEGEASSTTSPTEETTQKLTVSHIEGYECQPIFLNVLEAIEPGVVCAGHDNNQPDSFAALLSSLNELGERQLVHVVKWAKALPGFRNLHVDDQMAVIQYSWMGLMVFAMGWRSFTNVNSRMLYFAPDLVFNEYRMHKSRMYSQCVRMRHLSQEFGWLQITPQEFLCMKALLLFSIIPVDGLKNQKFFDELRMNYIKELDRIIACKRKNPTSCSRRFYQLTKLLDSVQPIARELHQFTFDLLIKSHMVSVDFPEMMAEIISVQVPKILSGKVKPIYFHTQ

[2] = Mus musculus, read-out: Shionogi Antiandrogenic activity IC50 (nM), inhibition of DHT-stimulated Shionogi cell number

| Compound | IC50 [1, 2] | Androgen Receptor Binding (%) Human RBA R1881 = 100 (Human Androgen Receptor) | IC50 ([1]; read-out: Shionogi Antiandrogenic activity IC50, inhibition of DHT-stimulated Shionogi cell number) | relative binding affinity to the wild-type hAR (Human Androgen Receptor) |
| --- | --- | --- | --- | --- |
| CCC(CC)NCc1ccc(F)c(OCC[C@]23CCC4C(CCC5CC(=O)CC[C@@]54C)C2CC[C@@H]3OC)c1 (stereo partly shown) [EM-6406] | 7.8 nM | 226% | – | – |
| CCC(NC1CCSCC1)c1cccc(OCC[C@]23CCC4C(CCC5CC(=O)CC[C@@]54C)C2CCC3O)c1 (stereo partly shown) [EM-6844] | 2.1 nM | 506% | – | – |
| CC[C@@H](NC1CCCCC1)c1cccc(OCC[C@]23CCC4C(CCC5CC(=O)CC[C@@]54C)C2CCC3O)c1 (stereo partly shown) [EM-7062] | 0.7 nM | 535% | – | – |
| COCC(NC1CCCCC1)c1cccc(OCC[C@]23CCC4C(CCC5CC(=O)CC[C@@]54C)C2CCC3O)c1 (stereo partly shown) [EM-6972] | 1.2 nM | 151% | – | – |
| CCCC(NC1CCCCC1)c1cccc(OCC[C@]23CCC4C(CCC5CC(=O)CC[C@@]54C)C2CC[C@@H]3O)c1 (stereo partly shown) [EM-6737] | 1.6 nM | 292.5% | – | – |
| CCCN(Cc1cccc(OCC[C@]23CCC4C(CCC5CC(=O)CC[C@@]54C)C2CC[C@@H]3O)c1)C1CCCC1 (stereo partly shown) [EM-6567] | 5.5 nM | 126% | – | – |
| CCC(CC)NCc1cc(CNC(CC)CC)cc(OCC[C@]23CCC4C(CCC5CC(=O)CC[C@@]54C)C2CC[C@@H]3O)c1 (stereo partly shown) [EM-6452] | 1.8 nM | 104% | – | – |
| Cc1ccc(CNC2CCCCC2)cc1OCC[C@]12CCC3C(CCC4CC(=O)CC[C@@]43C)C1CC[C@@H]2O (stereo partly shown) [EM-6453] | 4.7 nM | 33% | – | – |
| C[C@@H](c1cccc(OCC[C@]23CCC4C(CCC5CC(=O)CC[C@@]54C)C2CC[C@@H]3O)c1)N(C)C1CCCCC1 (stereo partly shown) [EM-6413] | 0.1 nM | 176% and 114% | – | – |
| CN(C)CC(NC1CCCCC1)c1cccc(OCC[C@]23CCC4C(CCC5CC(=O)CC[C@@]54C)C2CCC3O)c1 (stereo partly shown) [EM-7131] | 35 nM | 125.7% | – | – |
| CO[C@H]1CCC2C3CCC4CC(=NO)CC[C@]4(C)C3CC[C@@]21CCOc1cccc(C(C)NC2CCCCC2)c1 (stereo partly shown) [EM-6533] | 8.6 nM | 10% | – | – |
| CCCC(c1cccc(OCC[C@]23CCC4C(CCC5CC(=O)CC[C@@]54C)C2CC[C@@H]3O)c1)N(C)C(CC)CC (stereo partly shown) [EM-6572] | – | 744% | – | – |
| O=C1C=C2CCC3C(CC[C@@]4(CCOc5cccc(C[S+]([O-])c6ccccc6)c5)C3CC[C@@H]4O)C2CC1 (stereo partly shown) [EM-6847] | 46 nM | 3.2% | – | – |
| C[C@H](c1cccc(OCC[C@]23CCC4C(CCC5C[C@@H](O)CC[C@@]54C)C2CC[C@@H]3O)c1)N(C)C1CCCCC1 (stereo partly shown) [EM-6555] | 5.6 nM | 4.6% | – | – |
| CC(C)CC(C)NCc1cccc(OCC[C@]23CCC4C(CCC5CC(=O)CC[C@@]54C)C2CC[C@@H]3O)c1 (stereo partly shown) [EM-6403] | 5.6 nM | 54% | – | – |
| C#C[C@]1(O)CCC2C3CCC4CC(=O)CC[C@]4(C)C3CC[C@@]21CCOc1cccc(C(C)NC2CCCCC2)c1 (stereo partly shown) [EM-6427] | 4.5 nM | 40% | – | – |
| CCC(NC1CCCCC1)c1cncc(OCC[C@]23CCC4C(CCC5=CC(=O)CC[C@@]54C)C2CCC3O)c1 (stereo partly shown) [EM-7094] | 1.4 nM | 70.8% | – | – |
| CCC(NC(C)C)c1cccc(OCC[C@]23CCC4C(CCC5=CC(=O)CC[C@@]54C)C2CC[C@@H]3O)c1 (stereo partly shown) [EM-6960] | < 0.1 nM | 147% | – | – |
| CCC(NC(C)C)c1cc(OCC[C@]23CCC4C(CCC5=CC(=O)CC[C@@]54C)C2CCC3O)ccn1 (stereo partly shown) [EM-7167] | – | 42% | – | – |
| CCC[C@H](NC(CC)CC)c1cccc(OCC[C@]23CCC4C(CCC5CC(=O)CC[C@@]54C)C2CC[C@@H]3O)c1.Cl (stereo partly shown) [EM-6557] | – | 31% | 0.3 nM | – |

| Compound | IC50 [1, 2] | Androgen Receptor Binding (%) Human RBA R1881 = 100 (Human Androgen Receptor) | IC50 ([1]; read-out: Shionogi Antiandrogenic activity IC50, inhibition of DHT-stimulated Shionogi cell number) | relative binding affinity to the wild-type hAR (Human Androgen Receptor) |
| --- | --- | --- | --- | --- |
| CCC(CC)NC(CC)c1ccc(F)c(OCC[C@]23CCC4C(CCC5CC(=O)CC[C@@]54C)C2CC[C@@H]3O)c1 (stereo partly shown) [EM-6449] | 0.9 nM | 103% | – | – |
| CCCC(NC1CCCC1)c1cccc(OCC[C@]23CCC4C(CCC5CC(=O)CC[C@@]54C)C2CC[C@@H]3O)c1 (stereo partly shown) [EM-6738] | 1.7 nM | 174.2% | – | – |
| CC(C)(NCc1ccccc1)c1cccc(OCC[C@]23CCC4C(CCC5CC(=O)CC[C@@]54C)C2CC[C@@H]3O)c1 (stereo partly shown) [EM-6708] | 27.5 nM | 62% | – | – |
| CCC(NC1CCOCC1)c1cccc(OCC[C@]23CCC4C(CCC5CC=CC[C@@]54C)C2CCC3O)c1 (stereo partly shown) [EM-6791] | 45.5 nM | 50.2% | – | – |
| CCC(NC1CCOCC1)c1cccc(OCC[C@]23CCC4C(CCC5=CC(=O)CC[C@@]54C)C2CCC3O)c1 (stereo partly shown) [EM-6765] | 0.2 nM | 34.6% | – | – |
| CCC(NC1CCOCC1)c1cccc(OCC[C@]23CCC4C(CCC5CC(F)=CC[C@@]54C)C2CCC3O)c1 (stereo partly shown) [EM-6996] | 37.3 nM | 32% | – | – |
| CC(C)(c1cccc(OCC[C@]23CCC4C(CCC5CC(=O)CC[C@@]54C)C2CC[C@@H]3O)c1)N1CCCCC1 (stereo partly shown) [EM-6740] | 15 nM | 42.5% | – | – |
| CCC(c1cncc(OCC[C@]23CCC4C(CCC5CC(=O)CC[C@@]54C)C2CCC3O)c1)N1CCOCC1 (stereo partly shown) [EM-7106] | 81 nM | 2.5% | – | – |
| CCC(NC1CCOCC1)c1cccc(OCC[C@]23CCC4C(CCC5=CC(=O)CC[C@@]54C)C2CCC3(C)O)c1 (stereo partly shown) [EM-6766] | 0.5 nM | 55.9% | – | – |
| CC(C)CNC1(c2cccc(OCC[C@]34CCC5C(CCC6CC(=O)CC[C@@]65C)C3CCC4O)c2)CC1 (stereo partly shown) [EM-6905] | 4.4 nM | 274.8% | – | – |
| C[C@]12CCC(=O)CC1CCC1C2CC[C@]2(CCOc3cccc(CNc4ccncc4)c3)C(O)CCC12 (stereo partly shown) [EM-6856] | 32 nM | 6% | – | – |
| CC1CCC(NCc2cccc(OCC[C@]34CCC5C(CCC6CC(=O)CC[C@@]65C)C3CC[C@@H]4O)c2)CC1 (stereo partly shown) [EM-6423] | 5 nM | 43% | – | – |
| CC(C)(O)C(=O)Nc1ccc([N+](=O)[O-])c(C(F)(F)F)c1 [OH-FLU, hydroxyflutamide, reference compound] | – | 0.29% and 0.1% | – | – |
| CCC[C@]1(O)CCC2C3CCC4CC(=O)CC[C@]4(C)C3CC[C@@]21CCOc1cccc(C(CC)NC(CC)CC)c1 (stereo partly shown) [EM-6522] | – | 41% | – | – |
| C[C@]1(O)CC[C@H]2[C@@H]3CCC4=CC(=O)CCC4=C3C=C[C@@]21C [R1881, reference compound] | – | – | – | 100 |
| CCC(NC(C)C)c1cc(OCC[C@]23CCC4C(CCC5CC(=O)CC[C@@]54C)C2CCC3O)ccn1 (stereo partly shown) [EM-7170] | – | 120.6% | – | – |
| CC(C)(C)CNCc1cccc(OCC[C@]23CCC4C(CCC5CC(=O)CC[C@@]54C)C2CC[C@@H]3O)c1 (stereo partly shown) [EM-6335] | – | 106% and 86% | – | – |
| CCC(CC)NC(CC)c1cccc(OCC[C@]23CCC4C(CCC5=CC(=O)CC[C@@]54C)C2CC[C@@H]3O)c1 (stereo partly shown) [EM-6526] | – | 59% | – | – |
| C[C@H](NC1CCCCC1)c1cccc(OCC[C@]23CCC4C(CCC5CC(=O)CC[C@@]54C)C2CC[C@@H]3O)c1 (stereo partly shown) [EM-6271] | – | 196% and 178% | – | – |
| CC(NC1CCCC1)c1cccc(OCC[C@]23CCC4C(CCC5CC(=O)CC[C@@]54C)C2CC[C@@H]3O)c1 (stereo partly shown) [EM-6536] | – | 87% | – | – |

Source: US9090651B2, “Helix 12 directed pharmaceutical products” (ENDORECHERCHE, INC., priority 2004, dated 2015)
